Assay results published in US20100028419A1, “MEMBRANE(S) AND USES THEREOF” (priority 2007, published 2010).

Tests used:
[1] = test system: MCF-7 cells; assay: In vitro transfection: uptake of fragmented ODN-cubic membrane complexes, fluorescence microscopy and TEM; type: cell-based, human; settings: 5 h
Protocol: Isolated mitochondria pellets (from fed, 10 days starved Chaos cells and mice liver) from Example 1 and transfected MCF-7 cell pellet prepared according to Example 4 were studied by the conventional TEM technique. Samples in the pellet forms were first fixed individually with 2.5% glutaraldehyde in 1×PBS at 4° C. After washing 4 times with 1×PBS buffer over 1 h to remove glutaraldehyde, the samples were post-fixed with 1% osmium tetroxide in 1× PBS buffer (pH 7.4) for 20 min at room temperature. The specimens were then washed 4 times with the 1×PBS buffer at 4° C. Thereafter 3% gelatin in PBS was added for 30 min before spinning down to collect the pellets at 2,500 rpm for 5 min. The specimens were stored at 4° C. overnight and the steps of adding 2.5% glutaraldehyde in PBS and washing with PBS were repeated for another cycle. The bigger specimens were trimmed into small cubes (1 mm in length) and washed with distilled water for 5 min. Dehydration through ethanol series was done using ethanol of 25%, 50%, 75%, 95% and 100% for 10 min each at room temperature. The specimens were then infiltrated with 100% acetone: resin in 1:1 ratio for 30 min at room temperature and with 100% acetone: resin in 1:6 ratio overnight. […]
There were three negative controls. […] The remaining cells were viewed 5 h post-transfection under the fluorescence microscope for the uptake of tagged-ODNs.

[2] = test system: amoeba Chaos cells; assay: Continuous addition of DPA (C22:5) into amoeba culture medium, TEM study; type: cell-based, Chaos carolinense; settings: 0.1 mM final concentration, fed Chaos cells with Paramecium present, 3 additions on alternate days, fixed at day 5
Protocol: All-cis-4,7,10,13,16 Docosapentaneoic Acid (DPA, C22:5n-6) (Sigma) and Cis-7,10,13,16,19 DPA (C22:5n-3) (Sigma) were dissolved in Diethyl Ether and added to the amoeba culture media at a final concentration of 0.1 mM. DPA (n-3) and DPA (n-6) were added separately after amoeba washing and in the presence of the food organisms (Paramecium multimicronucleatum). The procedure was performed every alternative day for a total of 3 times according to the regular feeding schedule. At day 5 post-DPA treatment Chaos cells were fixed in 2.5% glutaraldehyde for TEM processing according to the procedure described in Example 6.

Row | Compound | inclusion bodies in cells (TEM) [1] | inner mitochondrial membrane transformation to cubic organization (TEM) [2]
1 | 5′ tct ccc agc gtg cgc cat 3′ (DNA TCTCCCAGCGTGCGCCAT; chemistry not given here) [naked ODNs] | no inclusion bodies observed | 
2 | CCCCC/C=C\C/C=C\C/C=C\C/C=C\C/C=C\CCC(=O)O [DPA (n-6), All-cis-4,7,10,13,16 Docosapentaneoic Acid] |  | enhanced their inner mitochondrial membrane transformation from random tubular (A) to cubic organization (D)
3 | CC/C=C\C/C=C\C/C=C\C/C=C\C/C=C\CCCCCC(=O)O [DPA (n-3), Cis-7,10,13,16,19 DPA] |  | did not have the same drastic effects on the inner mitochondrial membrane organization
